Measurements published in article PMC4074244 (Nature, 2014).

Key:
[1] = target: T1, mitochondrial glycerophosphate dehydrogenase (mGPD) (Homo sapiens, UniProt P43304); experiment: DCIP reduction assay; assay type: biochemical
T1 sequence (P43304 43-727): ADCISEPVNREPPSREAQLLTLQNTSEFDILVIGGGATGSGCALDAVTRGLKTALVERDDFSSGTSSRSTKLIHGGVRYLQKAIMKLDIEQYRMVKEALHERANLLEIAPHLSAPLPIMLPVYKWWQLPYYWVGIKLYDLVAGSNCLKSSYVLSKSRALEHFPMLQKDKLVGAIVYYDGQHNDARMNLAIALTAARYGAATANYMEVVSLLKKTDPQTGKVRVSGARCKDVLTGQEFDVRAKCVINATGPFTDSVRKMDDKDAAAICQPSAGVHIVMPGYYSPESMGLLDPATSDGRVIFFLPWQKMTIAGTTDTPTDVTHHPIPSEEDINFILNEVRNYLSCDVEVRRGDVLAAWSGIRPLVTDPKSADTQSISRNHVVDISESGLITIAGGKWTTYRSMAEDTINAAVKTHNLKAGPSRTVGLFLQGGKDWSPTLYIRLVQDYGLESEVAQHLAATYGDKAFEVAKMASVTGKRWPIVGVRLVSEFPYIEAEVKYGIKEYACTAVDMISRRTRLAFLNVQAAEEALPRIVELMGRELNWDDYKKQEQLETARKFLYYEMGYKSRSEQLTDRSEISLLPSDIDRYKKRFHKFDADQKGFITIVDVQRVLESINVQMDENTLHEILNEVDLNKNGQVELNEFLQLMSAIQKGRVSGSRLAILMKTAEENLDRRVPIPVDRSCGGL

[2] = target: T2, mitochondrial glycerophosphate dehydrogenase (mGPD) (Rattus norvegicus, UniProt P35571); experiment: DCIP reduction assay; assay type: biochemical
T2 sequence (P35571 43-727): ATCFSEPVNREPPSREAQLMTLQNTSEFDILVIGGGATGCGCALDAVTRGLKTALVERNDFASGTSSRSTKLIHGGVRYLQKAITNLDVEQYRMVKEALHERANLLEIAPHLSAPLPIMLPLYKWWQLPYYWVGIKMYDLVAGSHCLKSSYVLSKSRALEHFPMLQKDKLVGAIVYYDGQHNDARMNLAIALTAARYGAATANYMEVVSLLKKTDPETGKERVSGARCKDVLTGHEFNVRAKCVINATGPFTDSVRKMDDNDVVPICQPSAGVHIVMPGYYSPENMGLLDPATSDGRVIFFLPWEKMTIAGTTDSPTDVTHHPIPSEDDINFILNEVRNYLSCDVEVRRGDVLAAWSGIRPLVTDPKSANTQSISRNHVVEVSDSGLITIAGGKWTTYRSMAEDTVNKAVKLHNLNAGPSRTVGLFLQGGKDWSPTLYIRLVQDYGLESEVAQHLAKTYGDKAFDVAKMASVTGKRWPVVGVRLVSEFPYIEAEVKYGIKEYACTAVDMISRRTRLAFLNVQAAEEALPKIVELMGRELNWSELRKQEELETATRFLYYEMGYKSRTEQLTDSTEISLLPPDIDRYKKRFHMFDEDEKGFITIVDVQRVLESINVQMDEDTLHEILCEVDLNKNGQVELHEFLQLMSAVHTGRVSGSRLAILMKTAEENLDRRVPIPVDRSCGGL

Ki [1]: ~55 µM
Ki [2]: ~38 µM
Structure (SMILES): CN(C)C(=N)N=C(N)N [metformin]
